# Results from ChEMBL document CHEMBL3632490, “Cytotoxic Barrigenol-like Triterpenoids from an Extract of Cyrilla racemiflora Housed in a Repository” (J Nat Prod, 2015).
# System: HT-29
# Assay: Cytotoxicity against human HT-29 cells assessed as inhibition of cell viability after 3 days by sulforhodamine B assay
# Type: functional, cell-based
# Details: HT-29, 72 h
row,Structure (SMILES),IC50 [µM]
1,CC1(C)C[C@H]2C3=CC[C@@H]4[C@@]5(C)C=CC(=O)C(C)(C)[C@@H]5CC[C@@]4(C)[C@]3(C)C[C@@H](O)[C@@]2(CO)[C@@H](O)[C@@H]1O,> 10
2,C/C=C(/C)C(=O)O[C@H]1[C@H](O)[C@]2(CO)[C@H](O)C[C@]3(C)C(=CC[C@@H]4[C@@]5(C)CC[C@H](O)C(C)(C)[C@@H]5CC[C@]43C)[C@@H]2CC1(C)C,1.7
3,C/C=C(/C)C(=O)O[C@H]1[C@H](OC(C)=O)[C@]2(CO)[C@H](O)C[C@]3(C)C(=CC[C@@H]4[C@@]5(C)CC[C@H](O)C(C)(C)[C@@H]5CC[C@]43C)[C@@H]2CC1(C)C,7.8
4,C/C=C(/C)C(=O)O[C@H]1CC(C)(C)C[C@H]2C3=CC[C@@H]4[C@@]5(C)CC[C@H](O)C(C)(C)[C@@H]5CC[C@@]4(C)[C@]3(C)[C@@H](O)[C@@H](O)[C@@]12CO,8.7
5,C/C=C(/C)C(=O)O[C@H]1[C@H](O)C(C)(C)C[C@H]2C3=CC[C@@H]4[C@@]5(C)CC[C@H](O)C(C)(C)[C@@H]5CC[C@@]4(C)[C@]3(C)[C@@H](O)[C@@H](O)[C@]21CO,> 10
6,C/C=C(/C)C(=O)O[C@@H]1[C@@H](O)[C@H](O[C@H]2CC(C)(C)C[C@H]3C4=CC[C@@H]5[C@@]6(C)C=C[C@H](O)C(C)(C)[C@@H]6CC[C@@]5(C)[C@]4(C)C[C@@H](O)[C@@]23CO)O[C@H](CO)[C@H]1OC(=O)/C(C)=C\C,> 10

# System: not listed separately
# Assay: Cytotoxicity against human CCD-112CoN cells assessed as inhibition of cell viability after 3 days by sulforhodamine B assay
# Type: cell-based
# Details: 72 h
row,Structure (SMILES),IC50 [µM]
1,CC(=O)O[C@H]1C(=O)[C@@]2(C)[C@H]([C@H](OC(=O)c3ccccc3)[C@]3(O)C[C@H](OC(=O)[C@H](O)[C@@H](NC(=O)c4ccccc4)c4ccccc4)C(C)=C1C3(C)C)[C@]1(OC(C)=O)CO[C@@H]1C[C@@H]2O [PACLITAXEL],19.3
2,C/C=C(/C)C(=O)O[C@H]1[C@H](O)[C@]2(CO)[C@H](O)C[C@]3(C)C(=CC[C@@H]4[C@@]5(C)CC[C@H](O)C(C)(C)[C@@H]5CC[C@]43C)[C@@H]2CC1(C)C,5.9
